The text below walks through data of PubChem BioAssay AID179 (DTP/NCI, 2004).

The assay concerns CEM cells HIV-1 protection, formazan growth assay. The assay can be described thus: NCI AIDS Antiviral Assay. As to conditions: for IC50: measured here: growth of uninfected CEM cells. Here is the method:
The ability of compounds to protect human CEM cells from HIV-1 infection is measured as a screen for new compounds capable of inhibiting the HIV virus. Five concentrations of drug were tested on uninfected and infected cells and cell growth was measured using a soluble formazan assay. […] Compounds that provided at least 50% protection were retested. Compounds that provided at least 50% protection on retest were listed as moderately active. Compounds that reproducibly provided 100% protection were listed as confirmed active. […] Note that the inability to provide protection could be due to toxicity.

Calls of active or inactive are those of the source.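 How the source made its calls: active means compounds giving half or more protection of infected cells from virus-caused growth loss, again on retest; inactive means the rest.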

As a reminder, the EC50 is the concentration giving half of the maximal effect. The IC50 is the midpoint of a concentration-inhibition curve. Read a high IC50 as a need for much substance. For `CCc1c(Cc2ccccc2)n(COCCO[Si](C)(C)C(C)(C)C)c(=O)[nH]c1=O`, the EC50 is greater than 34.7 µM and the concentration for half-maximal inhibition (IC50) is 12.6 µM.
Consider `CCOC(=O)C(C)(C)Oc1ccc2c(-c3ccc(Cl)cc3)cc(=O)oc2c1`, for which the EC50 was greater than 13.5 µM and the IC50 is greater than 13.5 µM.
In the case of `O=P1(Cc2ccccc2)c2ccccc2-c2ccccc21`, the EC50 was greater than 200 µM and the IC50 turned out to be 3.63 µM.
For `COC(=O)C(Cn1cnc2c(N)ncnc21)P(=O)(OC)OC` (stereo unspecified) the same measures were greater than 759 µM and 39.8 µM.
Consider `O=[N+]([O-])c1ccc(S(=O)(=O)N/N=C/c2ccco2)cc1`, for which the EC50 is greater than 316 µM and the IC50 worked out at 166 µM.
With `CNc1ccc(C)cc1S(=O)(=O)c1ccc(OC)cc1`, the EC50 is greater than 200 µM and the IC50 came to 95.5 µM.
For the compound `O=C1Oc2ccccc2[C@@H]2[C@H]1[C@@H]1C(=O)Oc3ccccc3[C@@H]12`, the EC50 was greater than 46.8 µM and the IC50 is greater than 46.8 µM.
Take `CCOC(=O)C1C(=O)CN2CCc3c([nH]c4ccccc34)C12C(=O)OCC` (stereo unspecified): the EC50 was greater than 257 µM and the 50% inhibitory concentration (IC50) was found to be 162 µM.
Turning to `CC(=O)c1sc2c(c1O)c(=O)n(-c1ccccc1)c(=S)n2-c1ccccc1`, the EC50 is greater than 240 µM and the IC50 came out at 70.8 µM.
For `O=S(=O)(/C=C/C=C/S(=O)(=O)c1ccccc1)c1ccccc1`, the EC50 was greater than 2 µM and the IC50 turned out to be 0.251 µM.
For the compound `N#C/C(=C\c1c(Cl)cccc1Cl)c1ccccc1`, the EC50 is greater than 50.1 µM and the IC50 is 28.8 µM.
The matching figures for `COC(=O)N1C=NC2C3(C)C(C)=C(C)C3(C)C21C` (stereo unspecified): greater than 263 µM and 151 µM.
For `COc1ccc(C2CC(=O)c3ccccc3O2)cc1OC` (stereo unspecified) the same measures were greater than 200 µM and 40.7 µM.
The matching figures for `CNC(=S)NNc1ncnc2c1ncn2-c1ccc(C)cc1`: greater than 200 µM and 57.5 µM.
For `O=C1NCCS(=O)(=O)N[C@@H](CC2=CC=CCC2)C(=O)N2CCCC12` (stereo partly specified), the EC50 is greater than 708 µM and the IC50 was greater than 708 µM.
Consider `C=C(Br)CC12CC3(CCC1c1ccc(OC)cc1C2=O)OCCO3` (stereo unspecified), for which the EC50 was greater than 110 µM and the IC50 was greater than 110 µM.
As to `O=c1[nH]/c(=C/c2ccc3c(c2)OCO3)c(=O)[nH]/c1=C/c1ccc2c(c1)OCO2`, the result was inactive.
Consider `Cc1ccccc1Nc1cn(COCc2ccccc2)c(=O)[nH]c1=O`, for which the EC50 was greater than 200 µM and the IC50 turned out to be 42.7 µM.
Regarding `C=C(C)Cn1c(=O)c2c(ncn2C)n(C)c1=O`, the EC50 was greater than 200 µM and the IC50 is greater than 200 µM.
Turning to `C=CCN=C1NC(=O)C(CC(=O)Nc2cccc(Cl)c2)S1` (stereo unspecified), the EC50 was greater than 288 µM and the IC50 was greater than 288 µM.
With `COc1cc(C)c(C(=O)Oc2cc(C)c(C(=O)O)c(O)c2C)c(OC)c1C`, the EC50 is greater than 200 µM and the IC50 stood at 70.8 µM.
In the case of `COC1=CC23C=CC1[C@@H](c1ccccc1)C2=C(C)C(=O)N3C(=O)NC1CCCCC1` (stereo partly specified), the EC50 is greater than 12.9 µM and the IC50 was greater than 12.9 µM.
With `COc1cc2c(cc1OC)C1CC3(CC4c5cc(OC)c(OC)cc5CCN4CC3CO)C(CO)CN1CC2` (stereo unspecified), the result was inactive.
With `CC1(C)CCCCCCCCCC(C)(CCCO)C1=O` (stereo unspecified), the EC50 was greater than 200 µM and the IC50 worked out at 26.9 µM.
As for `CO/N=C(\C(=O)Nc1cncs1)c1csc(N)n1`, the EC50 was greater than 200 µM and the IC50 was greater than 200 µM.
On to `CC(C)(C)NNC(=O)/C(=C/c1ccc([N+](=O)[O-])cc1)NC(=O)c1ccccc1`, for which the EC50 was greater than 7.08 µM and the IC50 is greater than 7.08 µM.
On to `O=C(c1ccc(O)cc1O)C1C(c2ccc(O)cc2)OC(c2ccc(O)cc2)C1C(=O)c1ccc(O)cc1O` (stereo unspecified), for which the result was inactive.
In the case of `C(=C\c1csnn1)/c1cccnc1`, the EC50 was greater than 316 µM and the IC50 turned out to be 182 µM.
For `CCCCCCCCCCCCCCCCCC(=O)NCC(COP(=O)(O)O)OCC` (stereo unspecified) the same measures were greater than 21.4 µM and greater than 21.4 µM.
For the compound `CCOC(=O)NN(C(=O)OCC)C(=C(C1CCCCC1)N1CCOCC1)N(NC(=O)OCC)C(=O)OCC`, the EC50 was 126 µM and the IC50 was 170 µM.
Regarding `C[C@H](CCC(=O)O)[C@H]1CC[C@H]2[C@@H]3C(=O)C[C@@H]4C[C@H](O)CC[C@]4(C)[C@H]3C[C@H](O)[C@]12C`, the EC50 is greater than 200 µM and the IC50 is greater than 200 µM.
Take `N=C(N)SCc1cn2ccccc2n1`: the EC50 is greater than 891 µM and the half-inhibitory concentration (IC50) stood at 50.1 µM.
Turning to `c1ccc(C(c2ccccc2)[P+](c2ccccc2)(c2ccccc2)c2ccccc2)cc1`, the EC50 was greater than 20 µM and the IC50 is 0.372 µM.
`O=C(O)Cn1ccc(=O)c2cc([N+](=O)[O-])ccc21`: the EC50 is greater than 200 µM and the IC50 is greater than 200 µM.
With `Cc1ccc2cc(NC(=O)CBr)c3ccc(C)nc3c2n1.Cc1ccc2cc(NC(=O)CBr)c3ccc(C)nc3c2n1.O=C1OC(C(O)C[O-])C(O)=C1O.[Cu+]`, the EC50 was greater than 12.6 µM and the half-inhibitory concentration (IC50) was found to be 3.02 µM.
Consider `CC1(COc2ccccc2OCC2(C)CO2)CO1` (stereo unspecified), for which the EC50 was greater than 1000 µM and the IC50 is 16.6 µM.
As to `O=C1CC2C3CC1C2C(=O)O3` (stereo unspecified), the EC50 was greater than 200 µM and the IC50 is greater than 200 µM.
Turning to `O=NN1C(c2ccccc2)CNC(=O)CC1c1ccccc1` (stereo unspecified), the outcome was inactive.
As for `CC1(C)CCCC2(C)C1CCC1(C)OC3=CC(=O)C(O)=CC3=CC12` (stereo unspecified), the EC50 is greater than 30.2 µM and the IC50 was 2.82 µM.
For the compound `C=CCSC(C)=O`, the EC50 is greater than 200 µM and the IC50 was greater than 200 µM.
Consider `C=C1C(=O)C23[C@H](O)C1CC[C@H]2[C@]12COC3(O)[C@@H](O)[C@@H]1C(C)(C)CC[C@@H]2O`, for which the EC50 is greater than 347 µM and the IC50 came to 1.95 µM.
With `N#CC(NNC(=O)c1ccccc1O)c1cccc(O)c1` (stereo unspecified), the EC50 is greater than 6.31 µM and the IC50 was determined as 0.562 µM.
Regarding `O=C1CCC2(c3ccc(Cl)cc3)Nc3ncccc3N12` (stereo unspecified), the EC50 is greater than 126 µM and the half-maximal inhibitory concentration (IC50) is 97.7 µM.
In the case of `CC(C)Oc1c(N(Cc2ccccc2)c2ccccc2C2SCCCS2)c(=O)c1=O`, the EC50 is greater than 200 µM and the IC50 is 1.17 µM.
Consider `CC1=N/C(=C\c2ccc(Br)cc2)C(=O)O1`, for which the EC50 was greater than 135 µM and the IC50 was greater than 135 µM.
With `CC1(C)O[C@@H]2[C@H](O1)C(=O)O[C@@H]2CO`, the EC50 is greater than 200 µM and the IC50 is greater than 200 µM.
`O=C(Nc1cc(Cl)c(Cl)cc1Cl)C(=O)C(C(=O)c1ccc(Cl)c(Cl)c1)C1OC(=O)c2ccccc21` (stereo unspecified): the EC50 was greater than 45.7 µM and the IC50 stood at 22.4 µM.
For `O=Cc1c(O)c(C(=O)Nc2ccc3[nH]c(=O)[nH]c3c2)cc2ccccc12`, the EC50 was greater than 38.9 µM and the IC50 is greater than 38.9 µM.
`CCC1(CC)C(=O)NC(=S)N=C1N`: the result was inactive.
For the compound `COC(=O)NC(Nc1ccc(Cl)cc1Cl)(C(F)(F)F)C(F)(F)F`, the result was inactive.
As to `CCCCNC1C2CCC(C)(C1O)C2(C)C` (stereo unspecified), the EC50 was greater than 200 µM and the IC50 came to 174 µM.
The matching figures for `CC(=O)O[C@H]1C[C@@H]2OC3C=C(C)CCC3(C)[C@@]1(C)[C@@]21CO1` (stereo partly specified): greater than 2 µM and 0.105 µM.
With `O=C1/C(=C\c2cccc(Oc3ccccc3)c2)SC(c2ccccc2)N1c1cc(Cl)ccc1Cl` (stereo unspecified), the EC50 was greater than 200 µM and the half-maximal inhibitory concentration (IC50) came out at 9.33 µM.
For the compound `Nc1ccc(S(=O)(=O)NC(=O)c2ccccc2)cc1`, the EC50 was greater than 200 µM and the IC50 is greater than 200 µM.
Consider `CSc1nc(NC2CCCC2)c2cc[nH]c2n1`, for which the EC50 was greater than 200 µM and the IC50 was found to be 43.7 µM.
For the compound `COc1cc(COC(=O)N[C@H](C(=O)O)C(C)(C)C)c([N+](=O)[O-])cc1OC`, the EC50 was greater than 676 µM and the IC50 was greater than 676 µM.
On to `c1ccc2c3[nH]c(c2c1)=Nc1ccc(cc1)-c1nc2cc(ccc2o1)N=c1[nH]c(c2ccccc12)=Nc1ccc2nc(oc2c1)-c1ccc(cc1)N=3`, for which the EC50 was greater than 200 µM and the IC50 came to 40.7 µM.
`Cn1cc(NC(=O)Nc2cc(C(=O)Nc3cc(C(=O)Nc4ccc(S(=O)(=O)O)c5cccc(S(=O)(=O)O)c45)n(C)c3)n(C)c2)cc1C(=O)Nc1cc(C(=O)Nc2ccc(S(=O)(=O)O)c3cccc(S(=O)(=O)O)c23)n(C)c1`: the result was inactive.
Consider `COc1c2c(c(O)c3c4c(c(C)cc13)C1OC3(C(OC)OC5CC(C)(O)C(OC6CC(C)(O)C(O)C(C)O6)C(C)O5)OC1C(OC)(O4)C31CO1)C(=O)C(O)CC2OC1CC(C)(O)C(OC(C)=O)C(C)O1` (stereo unspecified), for which the EC50 is greater than 26.3 µM and the IC50 was found to be 0.00832 µM.
Regarding `Cc1c2ccccc2c(CSCCC(N)C(=O)O)c2ccccc12` (stereo unspecified), the EC50 is greater than 200 µM and the IC50 was greater than 200 µM.
Regarding `c1c(N2CCOCC2)ssc1=[N+]1CCOCC1`, the outcome was inactive.
Consider `CN(CC#N)C(=O)Cc1ccc([N+](=O)[O-])cc1`, for which the EC50 was greater than 200 µM and the IC50 is greater than 200 µM.
`Cc1nc2c(=O)n(-c3ccccc3)c(=O)n(-c3ccccc3)c2o1`: the EC50 was greater than 200 µM and the 50% inhibitory concentration (IC50) was greater than 200 µM.
Regarding `Clc1ccc(CNNCc2cccc(Cl)c2)cc1`, the EC50 was greater than 200 µM and the IC50 was 102 µM.
On to `CSC(SC)=C(C#N)C(N)=S`, for which the EC50 was greater than 200 µM and the IC50 amounted to 123 µM.
For the compound `c1ccc2c(c1)cc1n2CC2CN=NC12` (stereo unspecified), the EC50 is greater than 182 µM and the IC50 was greater than 182 µM.
For the compound `COc1ccc(N=CN(C)C)c(C)c1`, the EC50 was greater than 200 µM and the 50% inhibitory concentration (IC50) is 3.98 µM.
Turning to `Cn1c(=O)nc2n(-c3cccc(F)c3)c3ccccc3nc-2c1=O`, the result was inactive.
For the compound `O=C(NC/C=C/Br)NC1CCNc2ccccc21` (stereo unspecified), the EC50 was greater than 200 µM and the half-maximal inhibitory concentration (IC50) was 14.1 µM.
On to `COc1ccc2nc3cc(Cl)ccc3c(Nc3ccc(S(=O)(=O)Nc4nccs4)cc3)c2c1`, for which the EC50 was greater than 9.77 µM and the IC50 is greater than 9.77 µM.
